Test results taken from patent US20070265164A1, “Active Substances for Increasing Pathogenic Defense in Plants and Methods for the Detection Thereof” (Bayer Cropscience GmbH, priority 2004, published 2007).

Assays:
Assay type in all cases: in vivo
Set-up in all cases: fold induction: dose or concentration left out as unconfirmed
Conditions in all cases: for fold induction: rates of Table 1 (S7 500)
[1] = tested on: Contig2305_at, Methyljasmonate inducible lipoxygenase; assay: GEP, barley DNA chip, probe set 1.14
Procedure: (§1) Barley plants (cv. Baronesse) were grown in compost-filled pots (diameter: 10 cm) for 10 days in a controlled-environment cabinet under defined light, humidity and temperature conditions (white light, 70% atmospheric humidity, 24° C.). At the time of spray application, the seedlings were approximately 15 cm in size. The test substances selected in this example were molecules which differ markedly in their structure and which have a well documented pronounced safener effect, and other molecules which are known from the literature to have an effect on plant stress and pathogen tolerance (Table 1). The substances were prepared as stock solutions in DMSO (dimethyl sulfoxide) at c=10 mg/ml). This was used for preparing dilutions in water supplemented with 0.2% Agrotin (comprises polyvinyl alcohol, silicones, polysaccharides and pH regulators, manufacturer: Bayer CropScience AG, Monheim, Germany), as wetter, to give the application rates shown in the table. The amount of liquid for the spray application was 800 μl per pot, corresponding to 800 l/ha. For each 800 μl of spray mixture, 16 μl of EC premix: diacetone alcohol=1:6 were additionally added as formulation auxiliaries. The substances listed in Table 1 were applied to the leaves by means of a pneumatic spray pistol. Each substance was sprayed as 2 dosages, and all experiments were carried out as replicates (2 pots per substance). Sprayings with blank formulation without active ingredient were carried out as controls. After 6 hours, the leaves were harvested, frozen in liquid nitrogen and stored at −80° C. until further use. The labeled RNA probes for the DNA chip hybridization were prepared as described in the protocols (Expression Analysis, Technical Manual) from Affymetrix (Affymetrix Inc., 3380 Central Expressway, Santa Clara, Calif., USA). First, total RNA was isolated from in each case 500 mg of the harvested leaves. In each case 10 μg of total RNA was used for the first-strand and second-strand cDNA synthesis. The cDNA was amplified with T7 polymerase and simultaneously labeled with biotin-UTP. In each case, 20 μg of this biotinylated cDNA was employed for the hybridization of the barley genome array (Gene Chip Barleyl, order No.: 511012) from Affymetrix. This DNA microarray comprises DNA sequences of 22 840 genes which are composed of a total of 400 000 EST sequences. Thereafter, the DNA microarrays were washed in the Affymetrix Fluidics Station, stained with streptavidin/phycoerythrin (Molecular Probes, P/N S-866) and scanned with the matching Agilent Laser Scanner (Agilent Gene Array Scanner). The fluorescent data obtained were analyzed with the software Microarray Suite 5 from Affymetrix. After the quality had been checked, all DNA chip analyses were stored in a database. To determine the relative expression values for genes (induction factors, repression factors), test and control chips were compared with each other, and the scoring function set by the Affymetrix software was used as the basis. The 2 biological replications of one experiment were compared in each case with 2 control chips (blank formulation), and the 4 expression values obtained for each gene were used for calculating the median. These medians are shown in the results tables as induction factors. Similarity comparisons of expression profiles from different experiments and cluster analyses were carried out using the software GeneMaths 1.5 from Applied Maths (Applied Maths, Keistraat 120, 9830 Sint-Martens-Latem, Belgium).
(§2) Gene groups from specific metabolic pathways and signal transduction chains were put together by key word search in the annotations, of the genes, which were also provided by Affymetrix, and by Blast analyses (homology comparisons) of the DNA target sequences, i.e. of the positive sequence (identified on the basis of a modified expression profile) identified on the DNA chip, using gene sequences from other organisms, preferably plant organisms, with characterized functions. […]

[2] = tested on: Contig6194_a_at, 12-oxophytodienoic acid reductase; assay: GEP, barley DNA chip, probe set 1.7
Procedure: as §1, §2

[3] = tested on: Contig1737_at, Probable lipoxygenase; assay: GEP, barley DNA chip, probe set 1.15
Procedure: as §1, §2

[4] = tested on: Contig2326_s_at, 12-oxophytodienoic acid reductase; assay: GEP, barley DNA chip, probe set 1.18
Procedure: as §1, §2

[5] = tested on: HI02E21u_s_at, Lipoxygenase (EC 1.13.11.12); assay: GEP, barley DNA chip, probe set 1.2
Procedure: as §1, §2

[6] = tested on: Contig8905_at, Xytanase inhibitor protein; assay: GEP, barley DNA chip, probe set 3.1
Procedure: as §1, §2

[7] = tested on: Contig2330_x_at, 12-oxophytodienoic acid reductase; assay: GEP, barley DNA chip, probe set 1.19
Procedure: as §1, §2

[8] = tested on: Contig1736_at, Lipoxygenase 1 (EC 1.13.11.12); assay: GEP, barley DNA chip, probe set 1.10
Procedure: as §1, §2

[9] = tested on: Contig88_x_at, Putative proteinase inhibitor; assay: GEP, barley DNA chip, probe set 2.3
Procedure: as §1, §2

[10] = tested on: Contig34_s_at, Putative proteinase inhibitor; assay: GEP, barley DNA chip, probe set 2.2
Procedure: as §1, §2

[11] = tested on: Contig2992_s_at, Chitinase (EC 3.2.1.14); assay: GEP, barley DNA chip, probe set 5.2
Procedure: as §1, §2

[12] = tested on: Contig 4986_at, Allene oxide cyclase; assay: GEP, barley DNA chip, probe set 1.5
Procedure: as §1, §2

[13] = tested on: Contig15_a_at, GDSL-motif lipase/hydrolase-like protein; assay: GEP, barley DNA chip, probe set 1.9
Procedure: as §1, §2

[14] = Hordeum vulgare, topical, barley leaves 6 h after spray application, median induction factor vs control, read-out: Expression value, 1.14 Contig2305_at
[15] = Hordeum vulgare, topical, barley leaves 6 h after spray application, median induction factor vs control, read-out: Expression value, 1.7 Contig6194_a_at
[16] = Hordeum vulgare, topical, barley leaves 6 h after spray application, median induction factor vs control, read-out: Expression value, 1.15 Contig1737_at
[17] = Hordeum vulgare, topical, barley leaves 6 h after spray application, median induction factor vs control, read-out: Expression value, 1.18 Contig2326_s_at
[18] = Hordeum vulgare, topical, barley leaves 6 h after spray application, median induction factor vs control, read-out: Expression value, 1.2 HI02E21u_s_at
[19] = Hordeum vulgare, topical, barley leaves 6 h after spray application, median induction factor vs control, read-out: Expression value, 3.1 Contig8905_at
[20] = Hordeum vulgare, topical, barley leaves 6 h after spray application, median induction factor vs control, read-out: Expression value, 1.19 Contig2330_x_at
[21] = Hordeum vulgare, barley leaves 6 h after spray application, median induction factor vs control, read-out: Expression value, 1.10 Contig1736_at
[22] = Hordeum vulgare, topical, barley leaves 6 h after spray application, median induction factor vs control, read-out: Expression value, 2.3 Contig88_x_at
[23] = Hordeum vulgare, topical, barley leaves 6 h after spray application, median induction factor vs control, read-out: Expression value, 2.2 Contig34_s_at
[24] = Hordeum vulgare, topical, barley leaves 6 h after spray application, median induction factor vs control, read-out: Expression value, 5.2 Contig2992_s_at
[25] = Hordeum vulgare, topical, barley leaves 6 h after spray application, median induction factor vs control, read-out: Expression value, 1.5 Contig 4986_at
[26] = Hordeum vulgare, topical, barley leaves 6 h after spray application, median induction factor vs control, read-out: Expression value, 1.9 Contig15_a_at
[27] = barley leaves 6 h after spray application, rates of Table 1 (150 g a.i./ha, S7 500), median induction factor vs control

| Compound | fold induction [1, 14] | fold induction [2, 15] | fold induction [3, 16] | fold induction [4, 17] | fold induction [5, 18] | fold induction [6, 19] | fold induction [7, 20] | fold induction [8, 21] | fold induction [9, 22] | fold induction [10, 23] | fold induction [11, 24] | fold induction [12, 25] | fold induction [13, 26] | also measured |
| --- | --- | --- | --- | --- | --- | --- | --- | --- | --- | --- | --- | --- | --- | --- |
| COC(=O)C1=NN(c2ccc(Cl)cc2Cl)C(C)(C(=O)OC)C1 (centres unmarked) [S1, Mefenpyr-dimethyl] | 1 | 12.9 | 1 | 2.31 | 1 | 3.1 | 4.03 | 1 | 1 | 1 | 6.5 | 1 | 0.35 |  |
| O=C(O)C1=NN(c2ccc(Cl)cc2Cl)C(c2ccc(F)cc2)C1 (centres unmarked) [S2] | 1 | 4.14 | 1 | 1 | 1 | 2.53 | 2.39 | 1 | 1 | 1 | 1 | 1 | 1 |  |
| CCOC(=O)C1=NOC(c2ccccc2)(c2ccccc2)C1 [S3, Isoxadifen-ethyl] |  |  |  |  |  |  |  |  |  |  |  |  |  | fold induction at 150 g/ha ([1]; Hordeum vulgare, topical, 6 h, read-out: Expression value, 1.14 Contig2305_at): 2.14; fold induction at 150 g/ha ([2]; Hordeum vulgare, topical, 6 h, read-out: Expression value, 1.7 Contig6194_a_at): 3.25; fold induction at 150 g/ha ([3]; Hordeum vulgare, topical, 6 h, read-out: Expression value, 1.15 Contig1737_at): 1; fold induction at 150 g/ha ([4]; Hordeum vulgare, topical, 6 h, read-out: Expression value, 1.18 Contig2326_s_at): 1; fold induction at 150 g/ha ([5]; Hordeum vulgare, topical, 6 h, read-out: Expression value, 1.2 HI02E21u_s_at): 40.8; fold induction at 150 g/ha ([6]; Hordeum vulgare, topical, 6 h, read-out: Expression value, 3.1 Contig8905_at): 2.99; fold induction at 150 g/ha ([7]; Hordeum vulgare, topical, 6 h, read-out: Expression value, 1.19 Contig2330_x_at): 1; fold induction at 150 g/ha ([8]; Hordeum vulgare, 6 h, read-out: Expression value, 1.10 Contig1736_at): 2.91; fold induction at 150 g/ha ([9]; Hordeum vulgare, topical, 6 h, read-out: Expression value, 2.3 Contig88_x_at): 4.53; fold induction at 150 g/ha ([10]; Hordeum vulgare, topical, 6 h, read-out: Expression value, 2.2 Contig34_s_at): 1; fold induction at 150 g/ha ([11]; Hordeum vulgare, topical, 6 h, read-out: Expression value, 5.2 Contig2992_s_at): 2.19; fold induction at 150 g/ha ([12]; Hordeum vulgare, topical, 6 h, read-out: Expression value, 1.5 Contig 4986_at): 3.76; fold induction at 150 g/ha ([13]; Hordeum vulgare, topical, 6 h, read-out: Expression value, 1.9 Contig15_a_at): 2.97 |
| CCCCCC(C)OC(=O)COc1ccc(Cl)c2cccnc12 (centres unmarked) [S4, Cloquintocet-mexyl] | 1 | 2.17 | 1 | 2.45 | 1 | 2.73 | 2.83 | 1 | 1 | 1 | 1 | 1 | 1 |  |
| CCOC(=O)C(Oc1ccc(Cl)c2cccnc12)C(=O)OCC [S5] | 1 | 2.81 | 1 | 1 | 1 | 3.01 | 1 | 1 | 1 | 1 | 3.12 | 1 | 0.46 |  |
| NC(=O)c1ccc(C(F)(F)F)nc1O [S6] | 1 | 3.16 | 1 | 1 | 1 | 2.45 | 2.55 | 1 | 1 | 1 | 2.27 | 1 | 1 |  |
| O=C(NO)c1ccccc1O [S7, Salicyl hydroxamate] |  |  |  |  |  |  |  |  |  |  |  |  |  | Expression value, 1.14 Contig2305_at [1, 27]: 41.07 x times; Expression value, 1.7 Contig6194_a_at [2, 27]: 1.00 x times; Expression value, 1.15 Contig1737_at [3, 27]: 1.00 x times; Expression value, 1.18 Contig2326_s_at [4, 27]: 1.00 x times; Expression value, 1.2 HI02E21u_s_at [5, 27]: 1.00 x times; Expression value, 3.1 Contig8905_at [6, 27]: 1.00 x times; Expression value, 1.19 Contig2330_x_at [7, 27]: 1.00 x times; Expression value, 1.10 Contig1736_at [8, 27]: 1.00 x times; Expression value, 2.3 Contig88_x_at [9, 27]: 21.86 x times; Expression value, 2.2 Contig34_s_at [10, 27]: 4.50 x times; Expression value, 5.2 Contig2992_s_at [11, 27]: 1.00 x times; Expression value, 1.5 Contig 4986_at [12, 27]: 1.00 x times; Expression value, 1.9 Contig15_a_at [13, 27]: 1.00 x times |
| CSC(=O)c1cccc2nnsc12 [S8, Acibenzolar-S-methyl] | 81.6 | 1 | 1 | 1 | 1 | 1 | 1 | 1 | 22.9 | 3.68 | 1 | 1 | 1 |  |
